Data on 31 compounds can be found in patent US8222416B2, “Azaindole glucokinase activators” (Hoffmann-La Roche Inc., priority 2009, dated 2012).

SMILES strings stand for the structures.

The first experiment has as its target T1, Recombinant human liver GK1 (GST-GK) (Homo sapiens, UniProt P35557).
T1 construct: made in house; host or cells: E. coli
T1 sequence (P35557 1-466 isoform P35557-2): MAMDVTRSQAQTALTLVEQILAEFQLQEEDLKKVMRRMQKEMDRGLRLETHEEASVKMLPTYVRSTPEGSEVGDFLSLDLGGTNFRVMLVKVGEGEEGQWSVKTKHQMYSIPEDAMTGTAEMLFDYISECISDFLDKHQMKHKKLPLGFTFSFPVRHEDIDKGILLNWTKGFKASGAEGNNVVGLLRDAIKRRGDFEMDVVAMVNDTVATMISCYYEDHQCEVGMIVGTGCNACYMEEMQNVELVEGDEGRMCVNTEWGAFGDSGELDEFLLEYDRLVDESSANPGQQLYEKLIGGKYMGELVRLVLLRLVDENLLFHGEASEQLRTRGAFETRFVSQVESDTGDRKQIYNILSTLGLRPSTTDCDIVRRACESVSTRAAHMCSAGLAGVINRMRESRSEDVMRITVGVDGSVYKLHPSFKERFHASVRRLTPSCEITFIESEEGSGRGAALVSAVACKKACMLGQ
As to the kind of experiment: In vitro glucokinase activity assay (G6PDH-coupled, NADH, OD340). Format: biochemical. The settings on record: at 30 μM. The method, then: Glucokinase In Vitro Assay Protocol: Glucokinase (GK) was assayed by coupling the production of glucose-6-phosphate to the generation of NADH with glucose-6-phosphate dehydrogenase (G6PDH, 0.75-1 kunits/mg; Boehringer Mannheim, Indianapolis, Ind.) from Leuconostoc mesenteroides as the coupling enzyme (Scheme 2).
Recombinant human liver GK1 was expressed in E. coli as a glutathione S-transferase fusion protein (GST-GK) [Liang et al, 1995] and was purified by chromatography over a glutathione-Sepharose 4B affinity column using the procedure provided by the manufacturer (Amersham Pharmacia Biotech, Piscataway, N.J.).
The assay was conducted at 30° C. in a flat bottom 96-well tissue culture plate from Costar (Cambridge, Mass.) with a final incubation volume of 120 μL. The incubation reaction contained the following: 25 mM Hepes buffer (pH 7.1), 25 mM KCl, 5 mM D-glucose, 1 mM ATP, 1.8 mM NAD, 2 mM MgCl2, 1 μM sorbitol-6-phosphate, 1 mM dithiothreitol, test drug or 10% dimethylsulfoxide, ˜7 units/ml G6PDH, and GK (see below). All organic reagents were >98% pure and were from Boehringer Mannheim with the exceptions of D-glucose and Hepes which were from Sigma Chemical Co, St Louis, Mo. Test compounds were dissolved in dimethylsulfoxide and were added to the incubation reaction minus GST-GK in a volume of 12 μL to yield a final dimethylsulfoxide concentration of 10%. This mix was pre-incubated in the temperature controlled chamber of a SPECTRAmax 250 microplate spectrophotometer (Molecular Devices Corporation, Sunnyvale, Calif.) for 10 minutes to allow temperature equilibrium and then the reaction was started by the addition of 20 μL GST-GK.
After addition of enzyme, the increase in optical density (OD) at 340 nm was monitored spectrophotometrically to determine the rate of change (OD340 per min). The GK activity (OD340/min) in control wells (10% dimethylsulfoxide minus GK activators) was compared with the activity in wells containing test GK activators, and the concentration of activator that produced a 50% increase in the activity of GK, i.e., the SC1.5, was calculated.
With `CCC(O)(CC)c1ccc(C(CC2CCCC2)c2cc3cccnc3[nH]2)cc1` (stereo not shown) [Example 83, 3-{4-[2-Cyclopentyl-1-(1H-pyrrolo[2,3-b]pyridin-2-yl)-ethyl]-phenyl}-pentan-3-ol], the “fold activation of GK” value is recorded as 1.4 fold at 30.

Staying with this experiment, now noted: concentration of activator that produced a 50% increase in the activity of GK; 5 mM D-glucose, 30° C.
Turning to `CS(=O)(=O)c1ccc(/C(=C\C2CCC2)c2cc3cc(F)cnc3[nH]2)cc1` [Example 46, 2-[(E)-2-Cyclobutyl-1-(4-methanesulfonyl-phenyl)-vinyl]-5-fluoro-1H-pyrrolo[2,3-b]pyridine], the SC1.5 was found to be 0.028 µM.

Turning to `CS(=O)(=O)c1ccc(C(CC2CCC2)c2cc3cc(F)cnc3[nH]2)cc1` (stereo not shown) [Example 47, 2-[2-Cyclobutyl-1-(4-methanesulfonyl-phenyl)-ethyl]-5-fluoro-1H-pyrrolo[2,3-b]pyridine], the SC1.5 came out at 0.415 µM.

As for `CS(=O)(=O)c1ccc(C(O)(CC2CCCC2)c2cc3cc(F)cnc3[nH]2)cc1` (stereo not shown) [Example 48, 2-Cyclopentyl-1-(5-fluoro-1H-pyrrolo[2,3-b]pyridin-2-yl)-1-(4-methanesulfonyl-phenyl)-ethanol], the SC1.5 amounted to 0.654 µM.

As for `N#Cc1ccc(C(CC2CCCC2)c2cc3cc(F)cnc3[nH]2)cc1` (stereo not shown) [Example 50, 4-[2-Cyclopentyl-1-(5-fluoro-1H-pyrrolo[2,3-b]pyridin-2-yl)-ethyl]-benzonitrile], the SC1.5 came out at 0.603 µM.

Take `CS(=O)(=O)c1ccc(C(CC2CCCC2)c2cc3cc(C#N)cnc3[nH]2)cc1` (stereo not shown) [Example 52, 2-[2-Cyclopentyl-1-(4-methanesulfonyl-phenyl)-ethyl]-1H-pyrrolo[2,3-b]pyridin-5-carbonitrile]: the SC1.5 was found to be 0.37 µM.

Turning to `COC(=O)c1cnc2[nH]c(C(CC3CCCC3)c3ccc(S(C)(=O)=O)cc3)cc2c1` (stereo not shown) [Example 54, 2-[2-Cyclopentyl-1-(4-methanesulfonyl-phenyl)-ethyl]-1H-pyrrolo[2,3-b]pyridin-5-carboxylic acid methyl ester], the SC1.5 amounted to 1.2 µM.

Consider `CC(C)(O)c1ccc(C(CC2CCCC2)c2cc3cc(C(=O)O)cnc3[nH]2)cc1F` (stereo not shown) [Example 57, 2-{2-Cyclopentyl-1-[3-fluoro-4-(1-hydroxy-1-methyl-ethyl)-phenyl]-ethyl}-1H-pyrrolo[2,3-b]pyridin-5-carboxylic acid], for which the SC1.5 is 22.3 µM.

With `CS(=O)(=O)c1ccc(C(CC2CCCC2)c2cc3cc(C(=O)NCCO)cnc3[nH]2)cn1` (stereo not shown) [Example 59, 2-[2-Cyclopentyl-1-(6-methanesulfonyl-pyridin-3-yl)-ethyl]-1H-pyrrolo[2,3-b]pyridin-5-carboxylic acid(2-hydroxy-ethyl)-amide], the SC1.5 is 5.5 µM.

Consider `COc1ccc(C(CC2CCCC2)c2cc3cccnc3[nH]2)cn1` (stereo not shown) [Example 61], for which the SC1.5 was found to be 3.0 µM.

Consider `c1cnc2[nH]c(C(CC3CCCC3)c3ccc4c(c3)OCCO4)cc2c1` (stereo not shown) [Example 62, 2-[2-Cyclopentyl-1-(2,3-dihydro-benzo[1,4]-dioxin-6-yl)-ethyl]-1H-pyrrolo[2,3-b]pyridine], for which the SC1.5 was 6.0 µM.

For the compound `Cc1ccc(C(CC2CCCC2)c2cc3cccnc3[nH]2)cn1` (stereo not shown) [Example 63], the SC1.5 was 3.5 µM.

For `CC(O)c1ccc(C(CC2CCCC2)c2cc3cccnc3[nH]2)cc1` (stereo not shown) [Example 64, 1-{4-[2-Cyclopentyl-1-(1H-pyrrolo[2,3-b]pyridin-2-yl)-ethyl]-phenyl}-ethanol], the SC1.5 came out at 2.2 µM.

Regarding `CN(C)c1ccc(C(CC2CCCC2)c2cc3cccnc3[nH]2)cc1` (stereo not shown) [Example 65, {4-[2-Cyclopentyl-1-(1H-pyrrolo[2,3-b]pyridin-2-yl)-ethyl]-phenyl}-dimethyl-amine], the SC1.5 amounted to 2.8 µM.

Turning to `Cc1cc(C)cc(C(CC2CCCC2)c2cc3cccnc3[nH]2)c1` (stereo not shown) [Example 66, 2-[2-Cyclopentyl-1-(3.5-dimethyl-phenyl)-ethyl]-1H-pyrrolo[2,3-b]pyridine], the SC1.5 is 4.2 µM.

For the compound `FC(F)(F)c1ccc(C(CC2CCOCC2)c2cc3cccnc3[nH]2)cc1` (stereo not shown) [Example 68, 2-[2-(Tetrahydro-pyran-4-yl)-1-(4-trifluoromethyl-phenyl)-ethyl]-1H-pyrrolo[2,3-b]pyridine], the SC1.5 came to 0.888 µM.

With `CS(=O)(=O)c1ccc(/C(=C\C2CCCO2)c2cc3cccnc3[nH]2)cc1` (stereo not shown) [Example 70, (E)-2-[1-(4-Methanesulfonyl-phenyl)-2-(tetrahydro-furan-2-yl)-vinyl]-1H-pyrrolo[2,3-b]pyridine], the SC1.5 was 0.082 µM.

For `CS(=O)(=O)c1ccc(C(CC2CCCO2)c2cc3cccnc3[nH]2)cc1` (stereo not shown) [Example 71, 2-[1-(4-Methanesulfonyl-phenyl)-2-(tetrahydro-furan-2-yl)-ethyl]-1H-pyrrolo[2,3-b]pyridine], the SC1.5 worked out at 2.3 µM.

For `COc1cnc2[nH]c(C(O)(CC3CCC3)c3ccc(S(C)(=O)=O)c(C(F)(F)F)c3)cc2c1` (stereo not shown) [Example 72, 2-Cyclobutyl-1-(4-methanesulfonyl-3-trifluoromethyl-phenyl)-1-(5-methoxy-1H-pyrrolo[2,3-b]pyridin-2-yl)-ethanol], the SC1.5 came to 13.3 µM.

Turning to `CC(C)(C)/C=C(\c1ccc(S(C)(=O)=O)cc1)c1cc2cccnc2[nH]1` [Example 73, 2-[(E)-1-(4-Methanesulfonyl-phenyl)-3,3-dimethyl-but-1-enyl]-1H-pyrrolo[2,3-b]pyridine], the SC1.5 worked out at 0.653 µM.

`CC(C)(C)CC(c1ccc(S(C)(=O)=O)cc1)c1cc2cccnc2[nH]1` (stereo not shown) [Example 74, 2-[1-(4-Methanesulfonyl-phenyl)-3,3-dimethyl-butyl]-1H-pyrrolo[2,3-b]pyridine]: the SC1.5 is 20.6 µM.

For the compound `CS(=O)(=O)Nc1ccc(C(CC2CCCC2)c2cc3cccnc3[nH]2)cc1` (stereo not shown) [Example 75, N-{4-[2-Cyclopentyl-1-(1H-pyrrolo[2,3-b]pyridin-2-yl)-ethyl]-phenyl}-methanesulfonamide], the SC1.5 came out at 2.5 µM.

For `CS(=O)(=O)c1ccc(C(O)(CC2CCC2)c2cc3cccnc3[nH]2)cc1C(F)(F)F` (stereo not shown) [Example 76, 2-Cyclobutyl-1-(4-methanesulfonyl-3-trifluoromethyl-phenyl)-1-(1H-pyrrolo[2,3-b]pyridin-2-yl)-ethanol], the SC1.5 was determined as 14.9 µM.

Consider `CS(=O)(=O)c1ccc(C(CC2CCC2)c2cc3cccnc3[nH]2)cc1C(F)(F)F` (stereo not shown) [Example 77, 2-[2-Cyclobutyl-1-(4-methanesulfonyl-3-trifluoromethyl-phenyl)-ethyl]-1H-pyrrolo[2,3-b]pyridine], for which the SC1.5 came out at 0.692 µM.

In the case of `CC(=O)c1ccc(C(CC2CCCC2)c2cc3cccnc3[nH]2)cc1` (stereo not shown) [Example 80, 1-{4-[2-Cyclopentyl-1-(1H-pyrrolo[2,3-b]pyridin-2-yl)-ethyl]-phenyl}-ethanone], the SC1.5 stood at 2.6 µM.

In the case of `CC(C)(O)c1ccc(C(CC2CCCC2)c2cc3cccnc3[nH]2)cc1` (stereo not shown) [Example 81, 2-{4-[2-Cyclopentyl-1-(1H-pyrrolo[2,3-b]pyridin-2-yl)-ethyl]-phenyl}-propan-2-ol], the SC1.5 was 2.3 µM.

Regarding `CC(C)C(C)(O)c1ccc(C(CC2CCCC2)c2cc3cccnc3[nH]2)cc1` (stereo not shown) [Example 85, 2-{4-[2-Cyclopentyl-1-(1H-pyrrolo[2,3-b]pyridin-2-yl)-ethyl]-phenyl}-3-methyl-butan-2-ol], the SC1.5 amounted to 23.6 µM.

Take `O=S(=O)(CCO)c1ccc(C(CC2CCCC2)c2cc3cc(F)cnc3[nH]2)cc1` (stereo not shown) [Example 88, 2-{4-[2-Cyclopentyl-1-(5-fluoro-1H-pyrrolo[2,3-b]pyridin-2-yl)-ethyl]-benzenesulfonyl}-ethanol]: the SC1.5 turned out to be 0.178 µM.

For the compound `O=S(=O)(CCO)c1ccc(C(CC2CCOCC2)c2cc3cc(F)cnc3[nH]2)cc1` (stereo not shown) [Example 89], the SC1.5 was found to be 2.5 µM.

With `CCOCCS(=O)(=O)c1ccc(C(CC2CCCC2)c2cc3cccnc3[nH]2)cc1` (stereo not shown) [Example 90, 2-{2-Cyclopentyl-1-[4-(2-ethoxy-ethanesulfonyl)-phenyl]-ethyl}-1H-pyrrolo[2,3-b]pyridine], the SC1.5 was found to be 0.73 µM.

Consider `O=S(=O)(CCO)c1ccc(C(CC2CCCC2)c2cc3cccnc3[nH]2)cc1` (stereo not shown) [Example 91], for which the SC1.5 was 0.832 µM.
